Test results reported in patent US9359338B2, “Cyclopropanecarboxamido-substitute aromatic compounds as anti-tumor agents” (Crown Bioscience Inc. (Taiwan), priority 2012, dated 2016).
Like-named read-outs stand apart in the source and are kept apart here.

Columns and labels:
KDR kinase (790-1356 AA) = KDR kinase (790-1356 AA) (Homo sapiens (Human), UniProt P35968); test: Inhibitory activity at KDR kinase (Lance Ultra Ulight-TK assay); format: biochemical
Method: Inhibitory Activity of Compounds at KDR Kinase
• [Experimental method]: Use Lance@Ultra Ulight™-TK assay kit from PerKinElmer to evaluate the inhibitory activity of compounds at KDR kinase. • [Instrument]: PerKinElmer's ENVISION plate reader • [Materials]: Optiplate-384 well plate (PerKinElmer), kinase buffer (50 mM Hepes pH7.5, 0.25 mM EGTA, 2 mM DTT, 0.01% Tween 20, 10 mM Mg^2+, 0.5 mM Mn^2+), KDR kinase (790-1356 AA, Crown Bioscience), KDR kinase substrate (PerKinElmer catalogue # TRF0127-M), Lance@Eu-W1024-anti-phosphotyrosine (PT66) (PerKinElmer, catalogue #AD0068), ATP (Invitrogen), DMSO (Sigma, catalogue #34869), purified water (Millipore, type: Milli-Q). • [Study conditions]: Mix KDR (final concentration: 20 nM) and compound (final DMSO: 0.5%), pre-incubate for 20 min at 30° C.; then add ATP (final concentration: 90 μM) and the substrate (final concentration […]). React for 2 hrs at 30° C. After the reaction, add antibody and reaction for 60 min at 30° C. Read the plate (615 nm, 665 nm), calculate the ratio of the value at 665 nm vs 615 nm and analyze the data. • [Samples]: Compounds in the examples and Sorafenib (positive control) • [Data Analysis]: Use CBIS data analysis software to calculate IC50 values

pERK in MDA-MB-231 cells = test: Inhibitory activity at pERK (In Cell Western, MDA-MB-231 cells); format: cell-based; conditions: Homo sapiens
Method: Inhibitory Activity of Compounds at pERK
When the cells reach 80% confluency, collect cells by trypsinization and centrifugation at 800 rpm for 3 minutes. Resuspend cells with appropriate volume of medium and count cell numbers. Adjust cell concentration to 70000 cells/mL, and split 100 μL cell suspension per well into 96-well plates. Transfer the plates into cell culture incubator (37° C., 5% CO2) and incubate cells overnight. Discard the medium, wash with PBS once, Prepare compound serial dilutions in culture medium with total 8 compound concentrations at 3-fold serial dilutions (the final top concentration starts from 30 μM). Dispense 75 μL DMEM medium (with 0.1% BSA) and 25 μL of each test compound dilution into corresponding wells with DMSO at 0.3% final concentration. Continue incubating cells in cell culture incubator for additional 2 hrs at 37° C., 5% CO2. Discard culture medium, and wash cells once with PBS. Add 100 μL of 4% formaldehyde solution to each well and fix for 20 min. Discard the formaldehyde, then add 100 μL ice-cold 100% methanol at 4° C. for 20 min. Discard methanol, wash with PBS three times. Add to each well 100 μL of 2% BSA solution, seal for 30 min at room temperature. Discard the BSA solution, add to each well 50 μL of the 1st antibody solution (prepared with 2% BSA, 1:250 dilution), incubate at 4° C. overnight. Discard the 1^St antibody solution, wash with PBS four times. Add to each well […] the 2nd antibody solution (prepared with 1% BSA, 1:1000 dilution), incubate at room temperature for 1 hr. Discard the 2nd antibody solution, wash with PBS four times, add to each well 100 μL PI solution (1.5 μM), incubate at room temperature for 30 min. Use Acumen (TPP) to measure the fluorescence. • [Samples]: Compounds in the examples and sorafenib (positive control) • [Data Analysis]: Use CBIS data analysis software to calculate IC50 values

PLC-PRF-5 cells = test: Inhibition of proliferation of PLC-PRF-5 cells (ATPlite); format: cell-based; conditions: Homo sapiens
From the text: Inhibitory Activity of Compounds to the Proliferation of PLC-PRF-5 Cells
• [experimental Method]: Use PerKinElmer's ATPlite™ Luminescence ATP Detection Assay System to evaluate the inhibitory activity of compounds to the proliferation of PLC-PRF-5 cells. • [Instruments]: ENVISION plate reader (PerKinElmer) and centrifuge (Thermo Scientific, Sorvall ST16R) • [material]: PLC-PRF-5 cells (ATCC), 96-well plate (Nunc, #165305), DMEM medium (Gibco, #11965-092), PBS (Invitrogen, #10010023), fetal bovine serum (Gibco, #16000044), DMSO (Sigma, #D2650), ATPlite™ Luminescence ATP Detection Assay System (PerkinElmer, #6016949), purified water (Millipore, type: Milli-Q). • [Protocol]: Grow PLC-PRF-5 cells in DMEM supplemented with 10% FBS. When the cells reach 80% confluency, collect cells by trypsinization and centrifugation at 800 rpm for 3 min. Resuspend cells with appropriate volume of medium and count cell numbers. Adjust cell concentration to 50000 cells/mL, and split 160 μL cell suspension per well into 96-well plates. Transfer the plates into cell culture incubator (37° C., 5% CO2) and incubate cells for 2 hrs. Prepare compound serial dilutions in culture medium with total 8 compound concentrations at 3-fold serial dilutions (the final top concentration starts from 30 μM). Dispense 40 μL of each test compound dilution into corresponding wells with DMSO at 0.3% final concentration. Continue incubating cells in cell culture incubator for additional 96 hrs at 37° C., 5% CO2. Discard culture medium, and wash cells once with PBS. Add 50 μL cell lysis buffer per well and shake plates for 5 min at room temperature to ensure complete lysis of cells. Then add 50 μL of substrate solution and shake plates for 1 min at room temperature. Allow the plates to incubate at room temperature for 5 min, followed by recording the luminescence signals using Envision, and subsequent data analysis. • [Samples]: Compounds in the examples and Sorafenib (positive control) • [Data analysis]: Use CBIS data analysis software to calculate IC50 values

[1] = MDA-MB-231, MDA-MB-231 cells, read-out: MDA-MB-231 pERK IC50
[2] = PLC-PRF-5, PLC-PRF-5 cells, read-out: PLC-PRF-5 cell proliferation IC50

KDR kinase (790-1356 AA), sequence (P35968 790-1356): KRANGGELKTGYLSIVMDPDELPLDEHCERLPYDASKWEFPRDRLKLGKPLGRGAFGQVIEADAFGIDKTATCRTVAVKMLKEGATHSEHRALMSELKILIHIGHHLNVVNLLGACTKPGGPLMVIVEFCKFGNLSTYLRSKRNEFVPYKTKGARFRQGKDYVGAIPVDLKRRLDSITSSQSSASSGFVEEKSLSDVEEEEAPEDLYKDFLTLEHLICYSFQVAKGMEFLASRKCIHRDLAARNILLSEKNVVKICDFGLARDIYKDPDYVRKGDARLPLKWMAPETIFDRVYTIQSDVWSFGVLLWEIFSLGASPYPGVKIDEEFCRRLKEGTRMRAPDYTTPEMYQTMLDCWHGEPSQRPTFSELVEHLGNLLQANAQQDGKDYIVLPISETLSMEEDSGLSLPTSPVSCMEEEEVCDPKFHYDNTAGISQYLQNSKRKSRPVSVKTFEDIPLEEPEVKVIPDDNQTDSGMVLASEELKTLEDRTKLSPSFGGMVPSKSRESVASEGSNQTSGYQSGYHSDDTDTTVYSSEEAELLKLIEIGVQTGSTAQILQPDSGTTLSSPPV

| SMILES | IC50 (KDR kinase (790-1356 AA)) [µM] | IC50 (pERK in MDA-MB-231 cells; [1]) [µM] | IC50 (PLC-PRF-5 cells; [2]) [µM] | IC50 (pERK in MDA-MB-231 cells; MDA-MB-231, read-out: MDA-MB-231 pERK IC50) [µM] | IC50 (PLC-PRF-5 cells; PLC-PRF-5, read-out: PLC-PRF-5 cell proliferation IC50) [µM] |
| --- | --- | --- | --- | --- | --- |
| CC(N)c1cc(NC(=O)Nc2ccc(Oc3ccnc(NC(=O)C4CC4)c3)c(F)c2)cc(C(F)(F)F)c1 (stereo not drawn) [Exe. 068] | 0.0157 | 0.0084 | 0.325 | – | – |
| Cc1cc(Oc2cc(NC(=O)C3CC3)ncn2)ccc1NC(=O)Nc1cc(NC2CCN(C)CC2)cc(C(F)(F)F)c1 [Exe. 076] | 0.0125 | 0.083 | 5.6 | – | – |
| Cc1cc(Oc2cc(NC(=O)C3CC3)ncn2)ccc1NC(=O)Nc1cc(N2CCCC2)cc(C(F)(F)F)c1 [Exe. 077] | 0.0143 | 0.169 | 16.5 | – | – |
| Cc1cc(Oc2cc(NC(=O)C3CC3)ncn2)ccc1NC(=O)Nc1ccc(F)c(OC(F)(F)F)c1 [Exe. 081] | 0.0133 | 0.104 | 16 | – | – |
| Cc1cc(Oc2cc(NC(=O)C3CC3)ncn2)ccc1NC(=O)Nc1ccc(Cl)c(OC(F)(F)F)c1 [Exe. 082] | 0.0068 | 0.036 | 22.5 | – | – |
| Cc1cc(Oc2cc(NC(=O)C3CC3)ncn2)ccc1NC(=O)Nc1cc(F)cc(C(C)(F)F)c1 [Exe. 083] | 0.0143 | 0.609 | 20.4 | – | – |
| Cc1cc(Oc2cc(NC(=O)C3CC3)ncn2)ccc1NC(=O)Nc1cccc(C(C)(F)F)c1 [Exe. 084] | 0.0122 | 0.122 | 5.86 | – | – |
| Cc1cc(Oc2cc(NC(=O)C3CC3)ncn2)ccc1NC(=O)Nc1ccc(C#N)c(Cl)c1 [Exe. 086] | 0.0083 | – | – | 0.226 | 19.3 |
| Cc1cc(Oc2cc(NC(=O)C3CC3)ncn2)ccc1NC(=O)Nc1cc(N2CCOCC2)cc(C(F)(F)F)c1 [Exe. 087] | 0.0129 | 0.036 | 5.05 | – | – |
| O=C(Nc1ccc(Oc2cc(NC(=O)C3CC3)ncn2)c(Cl)c1)Nc1ccc(F)c(C(F)(F)F)c1 [Exe. 088] | 0.0114 | 0.106 | 2.05 | – | – |
| O=C(Nc1ccc(F)c(C(F)(F)F)c1)Nc1ccc(Oc2cc(NC(=O)C3CC3)ncn2)cc1Cl [Exe. 089] | 0.0152 | 0.019 | 6.87 | – | – |
| Cc1cc(Oc2cc(NC(=O)C3CC3)ncn2)c(F)cc1NC(=O)Nc1ccc(Cl)c(C(C)(F)F)c1 [Exe. 091] | 0.0128 | 0.053 | 7.6 | – | – |
| Cc1cc(NC(=O)Nc2cccc(C(F)(F)F)c2)cc(Oc2cc(NC(=O)C3CC3)ncn2)c1 [Exe. 094] | 0.2 | 0.163 | 19 | – | – |
| Cc1cc(NC(=O)Nc2cccc(OC(F)(F)F)c2)cc(Oc2cc(NC(=O)C3CC3)ncn2)c1 [Exe. 095] | 0.434 | 0.082 | 19.2 | – | – |
| CC(F)(F)c1cc(NC(=O)Nc2cc(F)cc(Oc3cc(NC(=O)C4CC4)ncn3)c2)ccc1Cl [Exe. 099] | 0.041 | 0.037 | 15 | – | – |
| O=C(Nc1ccc(Oc2cc(NC(=O)C3CC3)ncn2)cc1)Nc1cc(F)cc(C(F)(F)F)c1 [Exe. 101] | 0.0125 | 0.682 | 2.6 | – | – |

More lines, in order of falling IC50 (KDR kinase (790-1356 AA)), values ahead:

| IC50 (KDR kinase (790-1356 AA)) [µM] | IC50 (pERK in MDA-MB-231 cells; [1]) [µM] | SMILES | IC50 (PLC-PRF-5 cells; [2]) [µM] | IC50 (pERK in MDA-MB-231 cells; MDA-MB-231, read-out: MDA-MB-231 pERK IC50) [µM] | IC50 (PLC-PRF-5 cells; PLC-PRF-5, read-out: PLC-PRF-5 cell proliferation IC50) [µM] |
| --- | --- | --- | --- | --- | --- |
| 0.624 | 0.028 | Cc1cc(NC(=O)Nc2ccc(Cl)c(C(C)(F)F)c2)cc(Oc2cc(NC(=O)C3CC3)ncn2)c1 [Exe. 096] | 21 | – | – |
| 0.192 | 0.057 | Cc1cc(NC(=O)Nc2ccc(F)c(C(F)(F)F)c2)cc(Oc2cc(NC(=O)C3CC3)ncn2)c1 [Exe. 092] | 17.2 | – | – |
| 0.105 | 0.752 | O=C(Nc1cc(F)cc(Oc2cc(NC(=O)C3CC3)ncn2)c1)Nc1cc(F)cc(C(F)(F)F)c1 [Exe. 098] | 8.4 | – | – |
| 0.0628 | 0.137 | O=C(Nc1cc(F)cc(Oc2cc(NC(=O)C3CC3)ncn2)c1)Nc1ccc(F)c(C(F)(F)F)c1 [Exe. 097] | 9.1 | – | – |
| 0.0343 | 0.324 | O=C(Nc1cc(C2CCN(C3CC3)CC2)cc(C(F)(F)F)c1)Nc1ccc(Oc2ccnc(NC(=O)C3CC3)c2)c(F)c1 [Exe. 060] | 1.51 | – | – |
| 0.0171 | 0.337 | O=C(Nc1cc(NC2CCNCC2)cc(C(F)(F)F)c1)Nc1ccc(Oc2ccnc(NC(=O)C3CC3)c2)c(F)c1 [Exe. 069] | 10.5 | – | – |
| 0.015 | 0.294 | O=C(Nc1cccc(C(F)(F)F)c1)Nc1ccc(Oc2cc(NC(=O)C3CC3)ncn2)c(F)c1 [Exe. 102] | 0.936 | – | – |
| 0.014 | 0.08 | Cc1cc(Oc2cc(NC(=O)C3CC3)ncn2)ccc1NC(=O)Nc1cccc(OC(F)(F)F)c1 [Exe. 079] | 6 | – | – |
| 0.0133 | 0.1 | Cc1cc(Oc2cc(NC(=O)C3CC3)ncn2)ccc1NC(=O)Nc1ccc(F)c(C(C)(F)F)c1 [Exe. 071] | 20.5 | – | – |
| 0.0133 | 0.028 | Cc1cc(Oc2cc(NC(=O)C3CC3)ncn2)ccc1NC(=O)Nc1ccc(NC2CCN(C)CC2)c(C(F)(F)F)c1 [Exe. 078] | 0.879 | – | – |
| 0.0131 | 0.42 | Cc1cc(Oc2cc(NC(=O)C3CC3)ncn2)ccc1NC(=O)Nc1cc(Cl)cc(C(F)(F)F)c1 [Exe. 075] | 20 | – | – |
| 0.0122 | 0.042 | O=C(Nc1cc(F)cc(C(F)(F)F)c1)Nc1ccc(Oc2cc(NC(=O)C3CC3)ncn2)cc1Cl [Exe. 090] | 2.8 | – | – |
| 0.012 | 0.085 | O=C(Nc1cccc(C2CC2)c1)Nc1ccc(Oc2ccnc(NC(=O)C3CC3)c2)c(F)c1 [Exe. 057] | 0.25 | – | – |
| 0.009 | 0.3 | O=C(Nc1ccc(Oc2cc(NC(=O)C3CC3)ncn2)cc1)Nc1ccc(F)c(C(F)(F)F)c1 [Exe. 100] | 2.42 | – | – |
| 0.0089 | 0.012 | Cc1cc(Oc2cc(NC(=O)C3CC3)ncn2)ccc1NC(=O)Nc1ccc(C)c(C(F)(F)F)c1 [Exe. 072] | 7 | – | – |
| 0.0081 | 0.029 | Cc1cc(Oc2cc(NC(=O)C3CC3)ncn2)ccc1NC(=O)Nc1cc(OC(F)(F)F)ccc1F [Exe. 080] | 3.04 | – | – |
| 0.008 | 0.016 | CN1C(=O)C2(CC2)c2cc(NC(=O)Nc3ccc(Oc4ccnc(NC(=O)C5CC5)c4)cc3)ccc21 [Exe. 066] | 2.5 | – | – |
